Experimental data from US20250172566A1, “SACCHARIDE SENSING SYSTEMS” (CARBOMETRICS LIMITED, priority 2022, published 2025).

Test: Fluorescent hydrogel phase glucose responsive assay (10 mM PBS, pH 7.4, 310 K)
Details: 20 mM D-glucose, GBM2 10 uM, FIM 1 uM
Procedure: The fluorescence spectrum of the corresponding hydrogel, already swollen in 200 μL of 10 mM PBS, in a well plate was recorded by exciting at the designated excitation frequency and monitoring at the typical emission maximum (Emmax). The PBS top solution was removed either by micropipette or by decanting onto an absorbent material. A 200 μL solution of D-glucose (in 10 mM PBS) at the required concentration was added to each hydrogel in the well plate and the system allowed to reach equilibrium. The emission spectra for each well were collected after this and compared to the original baseline emission, monitoring at the typical emission maximum (Emmax), and the percentage increase or decrease recorded. The change in emission was recorded for each hydrogel in the well plate (up to 96 individual hydrogel sensors) or an average of all wells was used. The hydrogel bound assays were then investigated for reproducibility by cycling with solutions of PBS or D-glucose. This was achieved by removal of the previous top solution (e.g. D-glucose) by micropipette or decanting onto an absorbent material and replacing with another solution (e.g. 10 mM PBS). […] Emission spectra acquired using a Clariostar plus plate reader.
(§1) Hydroxyethylmethacrylate (2.85 g), TEGDMA (0.15 g), VAZO-44 (0.12 mg), ethylene glycol (1.06 g) and water (1.33 g) were added to a glass vial and vortexed/sonicated until a homogeneous solution. Concentrated aliquots (<50 μL) of the appropriate GBM and FIM from pre-made stock solutions were added to give the required final concentrations of GBM and FIM (i.e. 50 μL of GBM stock solution at 1 mM gives a final GBM concentration of 10 μM in the pre-gel solution). A 50 μL aliquot of this GBM and FIM containing pre-gel solution was pipetted into each well of a transparent flat-bottomed polystyrene 96 well plate. 100 μL of n-butanol was layered on top of the pre-gel solution in each well plate and each well plate covered with a loose transparent well plate lid. The well plate was then placed in a nitrogen flushed desiccator, which was then placed into a pre-heated oven at 45° C. for 4 hours. The well plates were then removed from the oven, allowed to cool to RT and the top solution removed by decanting onto an absorbent material. The hydrogels were then washed and swelled by submerging in one litre of pure water or 10 mM PBS for 24 hours. Each well within the well plate containing hydrogel bound assay was then washed with D-glucose (50 mM) and then 10 mM PBS multiple times until the observed fluorescence emission stabilised to give a baseline emission value in 10 mM PBS. These hydrogels were then used for determining assay performance and reversibility studies.
as §1, with “(1.95” for “(2.85”, “PEGDA (0.57” for “TEGDMA (0.15”, “(0.04” for “(0.12”, “200 mM methyl-p-D-glucopyranoside (aqueous, 1.39” for “water (1.33”, “FIM.” for “FIM (i.e. 50 μL of GBM stock solution at 1 mM gives a final GBM concentration of 10 μM in the pre-gel solution).”, “hours.” for “hours. Each well within the well plate containing hydrogel bound assay was then washed with D-glucose (50 mM) and then 10 mM PBS multiple times until the observed fluorescence emission stabilised to give a baseline emission value in 10 mM PBS. These hydrogels were then used for determining assay performance and reversibility studies.”

[1] = Ex 470/Emmax 530 nm, hydrogel A (HEMA/TEGDMA)
[2] = Ex 470/Emmax 530 nm, hydrogel C (polyacrylamide/bis-acrylamide)

**Q.** Which “Change in Emmax for FIM at a particular D-glucose concentration” value (from here on “Change in Emmax for FIM”) [1] does the source give for `C=CC(=O)NCCCC[C@@H](C(=O)Nc1ccc2c(c1)C(=O)OC21c2ccc(O)cc2Oc2cc(O)ccc21)n1cc(-c2ccc(CCO[C@@H]3O[C@H](CO)[C@@H](O)[C@H](O)[C@H]3O)cc2)nn1` [FIM22] here?
**A.** Its value is 10%.

**Q.** And the “Change in Emmax for FIM” value [2]?
**A.** The value was 15%.

**Q.** What does the source list for `C=CC(=O)NCCOCCOCCOCCOCCOCCOCCC(=O)NCCCC[C@@H](C(=O)Nc1ccc(CCO[C@@H]2O[C@H](CO)[C@@H](O)[C@H](O)[C@H]2O)cc1)n1cc(CNC(=O)c2ccc(C(=O)O)c(-c3c4cc(C)c(=NCC)cc-4oc4cc(NCC)c(C)cc34)c2)nn1` [FIM16]?
**A.** Change in Emmax for FIM at a particular D-glucose concentration (Ex 515/Emmax 550 nm, hydrogel A (HEMA/TEGDMA)): 45%; Change in Emmax for FIM at a particular D-glucose concentration (Ex 515/Emmax 550 nm, hydrogel C (polyacrylamide/bis-acrylamide)): 50%

**Q.** Which “Change in Emmax for FIM” value [1] does the source give for `C=CC(=O)NC(Cc1cn(CCOCCOc2ccc(CCO[C@@H]3O[C@H](CO)[C@@H](O)[C@H](O)[C@H]3O)cc2)nn1)C(=O)Nc1ccc2c(c1)C(=O)OC21c2ccc(O)cc2Oc2cc(O)ccc21` (stereo partly drawn) [FIM21] here?
**A.** The value was 0%.

**Q.** With `C=CC(=O)NCCOCCOCCOCCOCCOCCOCCC(=O)NCCCC[C@@H](C(=O)Nc1ccc2c(c1)C(=O)OC21c2ccc(O)cc2Oc2cc(O)ccc21)n1cc(-c2ccc(CCO[C@@H]3O[C@H](CO)[C@@H](O)[C@H](O)[C@H]3O)cc2)nn1` [FIM24] as the molecule, how does the “Change in Emmax for FIM” value [1] read?
**A.** The value was 8%.

**Q.** For `C=CC(=O)NCCOCCOCCOCCOCCOCCOCCC(=O)NCCCC[C@@H](C(=O)Nc1ccc(CCO[C@@H]2O[C@H](CO)[C@@H](O)[C@H](O)[C@H]2O)cc1)n1cc(CNC(=O)c2ccc3c(c2)C(=O)OC32c3ccc(O)cc3Oc3cc(O)ccc32)nn1` [FIM23], which “Change in Emmax for FIM” value [1] is on record?
**A.** The value was 10%.

**Q.** What about the “Change in Emmax for FIM” value [2] of the same molecule?
**A.** The value was 15%.

**Q.** Which “Change in Emmax for FIM” value [1] does the source give for `C=CC(=O)NCCOCCOCCOCCOCCOCCOCCC(=O)NCCCC[C@@H](C(=O)Nc1ccc2c(c1)C(=O)OC21c2ccc(O)cc2Oc2cc(O)ccc21)n1cc(-c2ccc(CCO[C@@H]3O[C@H](C(=O)O)[C@@H](O)[C@H](O)[C@H]3O)cc2)nn1` [FIM25] here?
**A.** The value was 12%.
